Measurements: patent US11554182B2, “Macrocyclic complexes of alpha-emitting radionuclides and their use in targeted radiotherapy of cancer” (CORNELL UNIVERSITY, priority 2017, dated 2023)

Assay: In vivo biodistribution of ^225Ac complexes after intravenous injection
Set-up: species or system C57BL/6 mice
Protocol: In Vivo Biodistribution of ^225Ac Complexes of Macropa and DOTA. All experiments were approved by the Institutional Animal Care Committee (IACC) of the University of British Columbia and were performed in accordance with the Canadian Council on Animal Care Guidelines. A total of 9 female C57BL/6 mice (6-8 weeks old, 20-25 g) were used for the biodistribution study of each radiometal complex, n=3 for each time point.
Macropa (100 μL of a 1 mg/mL solution in NH4OAc) was diluted with 387 μL of NH4OAc (1 M, pH 7), and an aliquot (203 μL) of ^225Ac(NO3)3 (˜157 kBq) was then added; the pH of this solution was adjusted to 6.5-7 by the addition of 1 M NaOH (210 μL, trace metal grade). After 5 min at ambient temperature, the reaction solution was analyzed by TLC (0.4 M pH 4 sodium citrate as the eluent), which confirmed >95% radiochemical yield. The reaction was allowed to proceed overnight, and the radiochemical yield was again confirmed to be >95% the following morning. At this time, mice were anesthetized by 2% isoflurane, and approximately 100 μL (10-15 kBq) of the [^225Ac(macropa)]^+ complex were injected into the tail vein of each mouse. After injection, mice were allowed to recover and roam freely in their cages, and were euthanized by CO2 inhalation at 15 min, 1 h, or 5 h (n=3 at each time point) post-injection. Blood was collected by cardiac puncture and placed into an appropriate test tube for scintillation counting. Tissues collected included heart, liver, kidneys, lungs, small intestine, large intestine, brain, bladder, spleen, stomach, pancreas, bone, thyroid, tail, urine, and feces. Tissues were weighed and then counted with a calibrated gamma counter (Packard, Cobra II model 5002) using three energy windows: 60-120 keV (window A), 180-260 keV (window B), and 400-480 keV (window C). Counting was performed both immediately after sacrifice and after 7 days; counts were decay corrected from the time of injection and then converted to the percentage of injected dose (% ID) per gram of tissue (% ID/g). No differences were noted between the data; therefore, the biodistributions are reported using the data acquired immediately using window A.
The biodistribution studies of [^225Ac(DOTA)]^− and ^225Ac(NO3)3 were carried out as described above for [^225Ac(macropa)]^+, with the following modifications. [^225Ac(DOTA)]^− was prepared by adding ^225Ac(NO3)3 (338 μL, 1.1 MBq) to a solution of DOTA (100 μg, 20 mg/mL in H2O) in NH4OAc (467 μL, 0.15 M, pH 7). The pH of the solution was adjusted to 7 using NH4OAc (150 μL, 1 M, pH 7) and the solution was heated at 85° C. for 45 min. RCY>99% was confirmed by TLC as described above. [^225Ac(DOTA)]^− was diluted with saline to a final concentration of 0.05 MBq/100 μL, and 100 μL were injected into each mouse. ^225Ac(NO3)3 (˜58 μL, 0.4 MBq) was diluted and injected in the same manner as [^225Ac(DOTA)]^−. One mouse that was to be euthanized at the 5 h time point in the [^225Ac(DOTA)]^− study died shortly after injection. In the same manner, one mouse that was to be euthanized at the 1 h time point in the ^225Ac(NO3)3 study died.
The in vivo stability [^225Ac(macropa)]^+ was examined by comparing its biodistribution to those of ^225Ac(NO3)3 and [^225Ac(DOTA)]^−. C57BL/6 mice were injected via tail vein with 10-50 kBq of each radiometal complex and were sacrificed after 15 min, 1 h, or 5 h. The amount of ^225Ac retained in each organ was quantified by gamma counting and reported as the percent of injected dose per gram of tissue (% ID/g). The results of these studies are compiled in Tables 1-3. Inadequate stability of an ^225Ac complex leading to the loss of radioisotope in vivo is manifested by the accumulation of ^225Ac in the liver, spleen, and bone of mice.^[11,12,32] […] The biodistribution profile of [^225Ac(macropa)]^+ (FIG. 3B) differs markedly from that of ^225Ac(NO3)3. […]

[1] = 1 h after i.v. injection, energy window B (180-260 keV)
[2] = 1 h after i.v. injection, energy window C (400-480 keV)
[3] = 5 h after i.v. injection, energy window A (60-120 keV)
[4] = 5 h after i.v. injection, energy window B (180-260 keV)
[5] = 5 h after i.v. injection, energy window C (400-480 keV)
[6] = i.v. injection, C57BL/6 mice, up to 5 h

## O=C([O-])c1cccc(CN2CCOCCOCCN(Cc3cccc(C(=O)[O-])n3)CCOCCOCC2)n1.[225Ac+3] [[^225Ac(macropa)]^+]
[1]
  % ID/g in pancreas: 0.12 % ID/g
  % ID/g in small intestines: 0.94 % ID/g
  % ID/g in spleen: 0.23 % ID/g
  % ID/g in stomach: 0.33 % ID/g
  % ID/g in tail: 1.82 % ID/g
  % ID/g in thyroids: 0.10 % ID/g
  % ID/g in urine: 517.19 % ID/g
[2]
  % ID/g in bladder: 9.00 % ID/g
  % ID/g in blood: 0.54 % ID/g
  % ID/g in bone (femur + joint): 0.70 % ID/g
  % ID/g in brain: 0.23 % ID/g
  % ID/g in feces: 0.69 % ID/g
  % ID/g in heart: 0.23 % ID/g
  % ID/g in kidneys: 17.38 % ID/g
  % ID/g in large intestines: 0.79 % ID/g
  % ID/g in liver: 1.08 % ID/g
  % ID/g in lungs: 0.84 % ID/g
  % ID/g in pancreas: 0.43 % ID/g
  % ID/g in small intestines: 1.62 % ID/g
  % ID/g in spleen: 0.48 % ID/g
  % ID/g in stomach: 0.17 % ID/g
  % ID/g in tail: 2.57 % ID/g
  % ID/g in thyroids: 8.34 % ID/g
  % ID/g in urine: 641.63 % ID/g
[3]
  % ID/g in bladder: 4.25 % ID/g
  % ID/g in blood: 0.01 % ID/g
  % ID/g in bone (femur + joint): 0.05 % ID/g
  % ID/g in brain: 0.02 % ID/g
  % ID/g in feces: 3.46 % ID/g
  % ID/g in heart: 0.10 % ID/g
  % ID/g in kidneys: 0.74 % ID/g
  % ID/g in large intestines: 0.49 % ID/g
  % ID/g in liver: 0.39 % ID/g
  % ID/g in lungs: 0.01 % ID/g
  % ID/g in pancreas: 0.10 % ID/g
  % ID/g in small intestines: 0.29 % ID/g
  % ID/g in spleen: 0.11 % ID/g
  % ID/g in stomach: 0.01 % ID/g
  % ID/g in tail: 0.14 % ID/g
  % ID/g in thyroids: 0.10 % ID/g
  % ID/g in urine: 12.78 % ID/g
[4]
  % ID/g in bladder: 3.69 % ID/g
  % ID/g in blood: 0.00 % ID/g
  % ID/g in bone (femur + joint): 0.02 % ID/g
  % ID/g in brain: −0.01 % ID/g
  % ID/g in feces: 3.49 % ID/g
  % ID/g in heart: −0.04 % ID/g
  % ID/g in kidneys: 0.78 % ID/g
  % ID/g in large intestines: 0.45 % ID/g
  % ID/g in liver: 0.36 % ID/g
  % ID/g in lungs: −0.05 % ID/g
  % ID/g in pancreas: −0.12 % ID/g
  % ID/g in small intestines: 0.29 % ID/g
  % ID/g in spleen: 0.09 % ID/g
  % ID/g in stomach: 0.04 % ID/g
  % ID/g in tail: 0.13 % ID/g
  % ID/g in thyroids: −6.94 % ID/g
  % ID/g in urine: 13.51 % ID/g
[5]
  % ID/g in bladder: 8.52 % ID/g
  % ID/g in blood: 0.04 % ID/g
  % ID/g in bone (femur + joint): 0.08 % ID/g
  % ID/g in brain: −0.01 % ID/g
  % ID/g in feces: 5.27 % ID/g
  % ID/g in heart: 0.28 % ID/g
  % ID/g in kidneys: 1.07 % ID/g
  % ID/g in large intestines: 0.68 % ID/g
  % ID/g in liver: 0.55 % ID/g
  % ID/g in lungs: 0.15 % ID/g
  % ID/g in pancreas: 0.13 % ID/g
  % ID/g in small intestines: 0.42 % ID/g
  % ID/g in spleen: 0.43 % ID/g
  % ID/g in stomach: 0.13 % ID/g
  % ID/g in tail: 0.28 % ID/g
  % ID/g in thyroids: 19.89 % ID/g
  % ID/g in urine: 22.27 % ID/g
i.v. injection, C57BL/6 mice
  route of excretion (in words): Most of the injected dose was renally excreted
[6]
  clearance from blood / mice (in words): rapidly cleared from mice
  organ accumulation (in words): did not accumulate in any organ
